Experimental data published in article PMC4414144, “Plasmin releases the anti-tumor peptide from the NC1 domain of collagen XIX” (Oncotarget, 2015).
Entries after “also recorded” stand apart in the source; their conditions may differ.

Legend:
[1] = test system: experimental murine melanoma; details: experimental murine melanoma model; ref [26]; cited from earlier work
From the text: (§1) Type XIX collagen is one of the minor basement membrane-associated collagens. It was discovered in 1992, isolated from rhabdomyosarcoma cell lines and named collagen Y [16]. This discovery was completed in 1993 by Myers et al who gave it the name of RH collagen. It is a 400 kDa homotrimer, composed by the association of three α1(XIX) chains. Each chain comprises 1142 residues, including six non-collagenous domains (NC1-NC6) separated by five collagenous domains (Col1-Col5). This collagen presents high structural homology with other types of collagens IX, XII, XIV, X ...

tumor angiogenesis = details: in vitro and in vivo; ref [26]; cited from earlier work
From the text: as §1

tumor cells = details: in vitro; ref [25]; cited from earlier work
From the text: as §1

plasmin [2] = target: T1, plasmin (Homo sapiens, UniProt P00747); experiment: P36 peptide digestion in vitro by plasmin (HPLC, MALDI-ToF MS); assay type: biochemical; details: for Effect on P36 peptide plasmin digestion: 16 h, E:S 1:50, HPLC
T1 construct: purchased Merck, Darmstadt
Experimental: Lyophilized plasmin with a specific activity of 10 U/mg (Merck, Darmstadt, Allemagne) was dissolved in sterile water to a concentration of 1 mg/mL. In control sample, P36 peptide (6.79 × 10^−4 M) was incubated overnight at 37°C in a Tris-HCl buffer (150 mM NaCl, 5 mM CaCl2, 50 mM Tris-HCl, pH 7.5). […] Aliquots were analyzed by HPLC as described below.
Dose-dependent digestion of P36 peptide by plasmin was measured by incubating P36 peptide 16 h at 37°C with different plasmin concentrations. Time-dependent analysis of P36 peptide cleavage by plasmin was obtained by incubating P36 with plasmin (E:S 1:50 at 37°C) during different time. Cleavage of the peptide was monitored by HPLC using method 1.
HPLC samples (20 μL of each sample with 30 μL of 0.1% trifluoroacetic acid) were injected on a Waters Alliance 2695 HPLC system, equipped with a photodiode array 2996 PDA detector, fraction collector III (WFC III) and the Empower^TM chromatography software for data acquisition (Milford, MA, USA). The column used was a EC 250/4 Nucleosil reversed phase (5 μm particle size, 100 Å pore size, 4 × 250 mm) which was protected by a guard column CC 8/4 Nucleosil 300-5 C4 (Macherey-Nagel, Düren, Germany). The injection volume was 20 μL and detection was performed at λ = 214 nm. Eluants were 0.1% trifluoroacetic acid in water (A) and 0.1% trifluoroacetic acid in 80% acetonitrile (B). The analyses followed a linear gradient program with a flow at 0.8 mL/min. Two method conditions were used:
(§2) Solutions of matrix α–cyano-4-hydroxycinnamic acid (CHCA) was prepared as a saturated solution in ACN/water (1/1; v/v) containing 0.1% TFA (10 mg/mL). Samples were prepared at a concentration of 10 pmol/μL in water containing 0.1% TFA. Typically, 1 μL of the matrix was pipetted on the MALDI target plate. Then 1 μL of analyte was added and air-dried for MALDI-ToF MS analysis.
(§3) MS experiments were performed using micromass MALDITM–LR time-of-flight mass spectrometer (Waters MS technologies, Manchester, UK) equipped with a nitrogen UV laser (337 nm wavelength), reflectron optics, a fast dual micro-channel plate (MCP) detector and a high magnification camera system. Positive ion spectra were acquired in reflectron mode. The following voltages were applied: pulse 1940 V, MCP 2380 V, suppression 500, flight tube 12000 V, reflectron 5200 V. A time lag focusing (TLF) delay of 680 ns was used between the time of laser pulse and the application of the accelerating voltage. Samples were analyzed in reflectron acquisition mode in the mass range 550-4000 Da. Mass calibration was performed using a peptide mixture composed of Bradykinin fragment 1–5 (573.31 Da), human Angiotensin II (1046.54 Da), Neurotensin (1672.92 Da), ACTH clip (2465.20 Da), bovine Insulin ß-chain oxidized (3494.65 Da) and bovine Insulin (5730.61 Da).

plasmin [3] = experiment: P36 peptide digestion in SKMEL28 melanoma cell cultures; assay type: cell-based, human; details: MALDI-ToF MS
Experimental: (§4) Human melanoma cell line (SKMEL28) was purchased from the American Type Culture Collection (ATCC, Manassas, VA). Cells were grown in Dulbecco's Modified Eagle's medium (DMEM) supplemented with 10% Fetal Bovine Serum (FBS), 1% penicillin and streptomycin (PenStrep®, Gibco®, France) in Nunclon® 75 cm^2 flasks (Dutscher, Brumath, France) at 37°C in a humid atmosphere (5% CO2, 95% air). Murine melanoma B16F1 cells, were a generous gift of Dr. M. Grégoire (INSERM UMRS 419, Nantes, France). They were grown in RPMI 1640 medium supplemented with 5% FBS in Nunclon 25 cm^2 flasks at 37°C in a humid atmosphere (5% CO2, 95% air). All culture media and reagents were purchased from Life Technologies (Invitrogen, Strasbourg, France).
SKMEL28 were incubated in DMEM with 20 μL plasminogen (40 μg/mL) and/or 20 μL plasmin (10 μg/mL) and/or aprotinin (10^−5 M) and P36 peptide. Samples were analyzed using HPLC and Matrix Assisted Laser Desorption Ionisation – Time of flight protocol (MALDI-ToF) as described below.
siRNA specific to human tPA (FlexiTube GeneSolution for PLAT) was purchased from Qiagen (Courtaboeuf, France). The siRNA target different regions of the tPA mRNA: 1st siRNA target sequence (5′-[…]-3′), 2nd siRNA target sequence (5′-[…]-3′), 3rd siRNA target sequence (5′-[…]-3′) and 4th siRNA target sequence (5′-[…]-3′). Exponentially growing SKMEL28 cells were transfected with siRNA pools (20 nM) using lipofectamine™ 2000. Decrease of tPA mRNA expression was assessed by RT-qPCR at 48 h after transfection. Decrease of tPA protein expression was monitored by zymography and immunocytofluorescence 72 h after siRNA transfection. Cells were subjected to plasminogen treatment for P36 peptide cleavage 24 h after transfection.

plasmin [4] = experiment: Plasmin activity measurement in SKMEL28 culture, chromogenic substrate S-2251; assay type: cell-based, human; details: SKMEL28 with plasminogen; S-2251 hydrolysis at 405 nm
Experimental: After washing with DPBS, cells were incubated in DMEM with/without 20 μL plasminogen (40 μg/mL) and/or 20 μL plasmin (10 μg/mL) and/or 20 μL plasmin chromogenic substrate (250 μg/mL). Hydrolysis of the S-2251 chromogenic substrate (Chromogenix, distributed by Hyphen Biomed, Neuville sur Oise, France) was measured at 405 nm at different time.

plasmin [5] = target: T1, plasmin; experiment: Kinetic analysis of P36 peptide cleavage by plasmin (KM, Kcat); assay type: biochemical; details: P36 8, 16, 32, 64 nM; 1.25 nM plasmin; 30 min, 37°C; HPLC; double-reciprocal plot
Experimental: Michaelis constant (KM) and first-order rate constant of substrate peptide turnover (Kcat) were obtained by digestion of P36 peptide (8, 16, 32, 64 nM), for 30 min at 37°C in the presence of 1.25 nM plasmin. Cleavage of the peptide was monitored by HPLC. From these measurements, Kcat and KM were calculated using double-reciprocal plot of 1/[S] versus 1/v.

MMP-1 = experiment: P36 peptide cleavage by MMP-1; assay type: biochemical; details: preliminary experiments, data not shown
MMP-2 = experiment: P36 peptide cleavage by MMP-2; assay type: biochemical; details: preliminary experiments, data not shown
MMP-9 = experiment: P36 peptide cleavage by MMP-9; assay type: biochemical; details: preliminary experiments, data not shown
MT1-MMP = experiment: P36 peptide cleavage by MT1-MMP; assay type: biochemical; details: preliminary experiments, data not shown
[6] = Intra-chain disulfide bond formation in solution; assay type: physicochemical; details: for Time for spontaneous intra-chain disulfide bond formation (C^1123-C^1128): in solution; for Intra-chain disulfide bond formation Cys^1123-Cys^1128: in solution over the time, MALDI-ToF MS
Experimental: as §2, §3

SKMEL28 cells = experiment: Scratch wound assay; assay type: cell-based, human; details: F4 200 μg/mL, p < 0.05 vs control, five experiments
Experimental: as §4
SKMEL28 cells (5 × 10^4 per well) were seeded in 24-well plates and cultivated to confluence in DMEM supplemented with 5% FBS. The cell layer was then wounded with a sterile 100 to 1000 μL pipet tip and re-incubated in fresh culture medium in the absence or presence of F4 peptide. After 24 h, 48 h or 72 h, cells were photographed and the size of the remaining wound measured.

B16F1 cells = experiment: In vivo murine melanoma model, tumor growth; set-up: species or system mouse (murine B16F1 melanoma in C57Bl6 mice); details: day 15; B16F1 cells pre-incubated 30 min with F4, s.c.; re-injected i.p. day 7 and 14; ten mice; p < 0.05 vs controls
Experimental: as §4
C57Bl6 mice (average body weight: 16–18 g) were purchased from Harlan France (Gannat, France). The in vivo experiments were conducted according to the ethical guidelines of the Centre National de la Recherche Scientifique (CNRS). In vivo melanoma model was previously described (Ramont et al., 2007). Briefly, 2.5 × 10^5 B16F1 cells, pre-incubated (30 min) with either control medium or F4 peptide, were subcutaneously injected into the left side of 10 syngenic C57BL6 mice. Treatments were re-injected intraperitoneally at day 7 and 14. Tumor size was measured regularly.

[7] = test system: experimental cancer models; details: cited from earlier work
From the text: The basement membrane is a complex structure mainly composed of laminins, nidogens, heparan sulfate proteoglycans (perlecan and/or agrin), and type IV collagen. More recently, associations between basement membrane and minor collagens such as type XVIII, XV or type XIX were reported and named basement membrane zone. These collagenous components associated with the basement membrane represent a dynamic interface between this structure and the stroma. Basement membrane has long been described as a simple architectural cell support. […] For instance, endostatin, the NC1 domain of type XVIII collagen, is released by many proteases such as MMP-3, 7, 9, 12, 13, 20 [14, 35, 36], or cathepsins B, L, S, V [37, 38, 39]. […] Tumstatin, the NC1 domain of type IV collagen is generated in vivo by MMP-9 [7]. It exerts anti-tumor and anti ...

[8] = SKMEL28, plasminogen + aprotinin (10^−5 M)
[9] = SKMEL28, plasminogen added (20 μL, 40 μg/mL)
[10] = E:S 1:50, 37°C, 0, 5, 30, 60 min, HPLC method 1

T1 sequence (P00747 97-580 partner limits assumed, species assumed): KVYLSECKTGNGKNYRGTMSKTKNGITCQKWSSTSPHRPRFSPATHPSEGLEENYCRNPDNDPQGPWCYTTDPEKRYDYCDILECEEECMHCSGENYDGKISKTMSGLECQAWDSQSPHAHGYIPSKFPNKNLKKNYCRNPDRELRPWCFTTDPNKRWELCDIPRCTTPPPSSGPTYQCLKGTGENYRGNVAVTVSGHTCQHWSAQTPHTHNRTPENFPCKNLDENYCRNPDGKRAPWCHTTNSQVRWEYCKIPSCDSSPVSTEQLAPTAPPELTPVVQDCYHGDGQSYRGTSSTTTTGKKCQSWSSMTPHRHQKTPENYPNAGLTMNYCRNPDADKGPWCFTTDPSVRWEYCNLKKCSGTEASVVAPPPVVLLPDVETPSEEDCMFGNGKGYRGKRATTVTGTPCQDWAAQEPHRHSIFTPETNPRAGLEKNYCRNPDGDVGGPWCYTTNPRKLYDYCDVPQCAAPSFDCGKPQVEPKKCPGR
T1 sequence (P00747 581-810 limits assumed, species assumed): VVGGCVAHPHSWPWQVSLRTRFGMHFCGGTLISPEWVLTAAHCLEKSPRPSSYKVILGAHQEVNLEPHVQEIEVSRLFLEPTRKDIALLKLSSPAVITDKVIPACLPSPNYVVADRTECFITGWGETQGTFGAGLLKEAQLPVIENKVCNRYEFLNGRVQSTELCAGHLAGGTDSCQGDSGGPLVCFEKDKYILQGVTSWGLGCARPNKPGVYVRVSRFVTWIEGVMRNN

## NPEDCLYPVSHAHQRTGGN [NC1(XIX), C-terminal NC1(XIX) domain (…), 19 amino acids]
[1]
  Inhibition of in vivo tumor growth: strong inhibition
Tumor angiogenesis
  Tumor angiogenesis: inhibited tumor angiogenesis in vitro and in vivo
Tumor cells
  Tumor cell migration and invasion: inhibited the migration and invasion capacities of tumor cells in vitro

## aprotinin [reference compound]
Plasmin [2]; aprotinin 10^−5 M, 37°C
  Effect on P36 peptide plasmin digestion: completely abolished
Plasmin [2]; aprotinin 10^−6 M, 37°C
  Effect on P36 peptide plasmin digestion: completely abolished
Plasmin [2]; aprotinin 10^−7 M, 37°C
  Effect on P36 peptide plasmin digestion: not sufficient to prevent it
Plasmin [3]; [8]
  Effect of aprotinin on release of F2, F3 and F4: abolished this release
Plasmin [4]
  Inhibition of plasmin activity: completely inhibited plasmin activity

## SPGAPGPQGPPGPSGR [F2, … Col1 domain of P36 peptide]
Plasmin [3]; SKMEL28, no added plasminogen
  Release of fragments / cleavage of P36 in cell culture: no release
Plasmin [3]; [9]
  Release of fragments / cleavage of P36 in cell culture: released

## (SPGAPGPQGPPGPSGRC) and the totality of the C-terminal NC1(XIX) domain (NPEDCLYPVSHAHQRTGGN) [P36, synthetic peptide composed of the last 36 residues of the human α1(XIX) chain]
Plasmin [2]; [10]
  Dependence of digestion on time: time-dependent
  Time at which P36 peptide was cleaved by plasmin: ≤ 5 min
Plasmin [2]; E:S 1:50, 16 h, 37°C, Tris-HCl pH 7.5, MALDI-ToF MS
  Plasmin cleavage site: Arg1138-Thr1139; also recorded: Arg1122-Cys1123
Plasmin [2]; plasmin 1:50 to 1:400, overnight/16 h, 37°C, HPLC method 1
  Dependence of digestion on plasmin dose: dose-dependent
Plasmin [5]
  Kcat: 0.077 s⁻¹
Plasmin [3]; SKMEL28, no added plasminogen
  Release of fragments / cleavage of P36 in cell culture: no cleavage of P36 peptide occurred
Plasmin [3]; [8]
  Cleavage of P36 in cell culture in presence of aprotinin: no cleavage of P36 occurred
Plasmin [3]; [9]
  Release of fragments / cleavage of P36 in cell culture: P36 peptide disappeared
MMP-1
  Cleavage of P36 by MMP-1: Neither MMP-1, MMP-2, MMP-9 nor MT1-MMP were capable to cleave the P36 peptide
MMP-2
  Cleavage of P36 by MMP-2: Neither MMP-1, MMP-2, MMP-9 nor MT1-MMP were capable to cleave the P36 peptide
MMP-9
  Cleavage of P36 by MMP-9: Neither MMP-1, MMP-2, MMP-9 nor MT1-MMP were capable to cleave the P36 peptide
MT1-MMP
  Cleavage of P36 by MT1-MMP: Neither MMP-1, MMP-2, MMP-9 nor MT1-MMP were capable to cleave the P36 peptide
[6]
  Time for spontaneous intra-chain disulfide bond formation (C^1123-C^1128): less than 1 h
  Intra-chain disulfide bond formation Cys^1123-Cys^1128: formed an intra-chain disulfide-bond

## CNPEDCLYPVSHAHQR [F4]
Plasmin [3]; SKMEL28, no added plasminogen
  Release of fragments / cleavage of P36 in cell culture: no release
Plasmin [3]; [9]
  Release of fragments / cleavage of P36 in cell culture: released
SKMEL28 cells; 24 h
  Change in wound closure: −53%
SKMEL28 cells; 48 h
  Change in wound closure: −39%
SKMEL28 cells; 72 h
  Change in wound closure: −36%
B16F1 cells
  Change in tumor growth (tumor volume): −30%
[6]
  Time for spontaneous intra-chain disulfide bond formation (C^1123-C^1128): less than 1 h
  Intra-chain disulfide bond formation Cys^1123-Cys^1128: formed an intra-chain disulfide-bond

## endostatin
[7]; number of experimental cancer models, ref [7], [43]
  Anti-tumor properties: exerts significant anti-tumor properties
[7]; ref [38]
  Metastatic potential of cells: reduces metastatic potential of cells
